Values of other authors, collected in US20100284970A1, “BEN[…] H1 RECEPTOR AND/OR NS4B PROTEIN” (AUSPEX PHARMACEUTICALS, INC., priority 2009, published 2010).

Biological target: T1, hepatitis C virus NS4B protein (Hepatitis C virus genotype 1b, UniProt Q9WMX2)
T1 construct: hepatitis C virus NS4B protein
Settings: Einav et al., Nature Biotechnology, 2008, 26, 1019-1027

T1 sequence (Q9WMX2 1712-1972): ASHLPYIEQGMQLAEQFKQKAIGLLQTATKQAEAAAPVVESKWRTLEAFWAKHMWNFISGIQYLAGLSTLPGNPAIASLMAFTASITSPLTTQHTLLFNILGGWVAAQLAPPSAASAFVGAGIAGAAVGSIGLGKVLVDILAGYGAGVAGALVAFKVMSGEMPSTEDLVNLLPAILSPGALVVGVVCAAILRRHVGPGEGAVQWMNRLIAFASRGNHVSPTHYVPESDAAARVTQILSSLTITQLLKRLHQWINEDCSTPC

## Clc1ccc(Cn2c(CN3CCCC3)nc3ccccc32)cc1 [Clemizole, 1-[(4-chlorophenyl)methyl]-2-(1-pyrrolidinylmethyl)benzimidazole]
  binding of hepatitis C virus RNA to hepatitis C virus NS4B protein: inhibit the binding of hepatitis C virus RNA to hepatitis C virus NS4B protein
